ChEMBL document CHEMBL3774338 (J Med Chem, 2016)

Assay: Chemical stability assessed as oxidation mediated drug degradation at room temperature exposed to air by mass spectrometric analysis
Assay type: physicochemical

Stability: Unstable
SMILES: O=c1[nH]cnc2c(-n3cc(CCN4CCC(c5cc(F)cc(F)c5)CC4)cn3)nccc12
